Results reported in patent US10266496B2, “Carboxy substituted (hetero) aromatic ring derivatives and preparation method and uses thereof” (SUNSHINE LAKE PHARMA CO., LTD., priority 2015, dated 2019).
Read-outs that look alike come from different tables or passages of the source.

Legend:
xanthine oxidase = xanthine oxidase (Homo sapiens (Human), UniProt P47989); assay: XO (Xanthine Oxidase) inhibition activity assay; assay type: biochemical; details: substrate xanthine, absorbance at 290 nm
Procedure: Then the diluted solution was added to a 384 well plate at 30 μL/well, and then to each well was added 30 μL of 21 mU/mL xanthine oxidase. […] After being incubated at room temperature for 5 min, absorbance at 290 nm was read by using PHERAstar FS microplate reader.

[1] = Pharmacokinetic evaluation in SD rats; assay type: in vivo
Procedure: SD rats were fasted for 15 h overnight and grouped randomly according to body weight. The test compound was dissolved in a solution of 5% DMSO+5% Solutol+90% Saline. For intravenous administration of the test group, the animals were administered with a dose of 1 mg/kg; for oral administration of the test group, the animals were administered with a dose of 5 mg/kg. Then venous blood (approximately 0.2 mL) was collected at the time point of 0, 0.083 (only intravenous injection group), 0.25, 0.5, 1.0, 2.0, 5.0, 7.0 and 24 h after drug administration. The venous blood was placed in EDTAK2 anticoagulant tube and centrifuged at 11000 rpm for 2 min. Plasma was collected and stored at −20° C. or at −70° C. until LC/MS/MS analysis. The drug concentration in plasma was measured at each time point, and pharmacokinetic parameters were calculated according to the curve of drug concentration-time.

hURAT1 = hURAT1 (Homo sapiens (Human), UniProt Q96S37); assay: URAT1 (urate anion transporter) inhibition activity assay: [8-14C] uric acid absorption inhibition in HEK293T cell line stably expressing hURAT1; assay type: cell-based; details: [8-14C] uric acid uptake, HEK293T cells stably expressing hURAT1
Description: Inhibition ratio (%)=[1−(^14C uptaken by drug well−^14C uptaken by negative well)/(^14C uptaken by buffer well−^14C uptaken by negative well)]×100;
Wherein, the negative well was unvaccinated cell line […].

[2] = rat, plasma, SD rats, iv, 1 mg/kg
[3] = rat, plasma, SD rats, iv, 1 mg/kg, read-out: Cmax
[4] = rat, plasma, SD rats, po, 5 mg/kg

Sequence of hURAT1 (Q96S37 whole entry): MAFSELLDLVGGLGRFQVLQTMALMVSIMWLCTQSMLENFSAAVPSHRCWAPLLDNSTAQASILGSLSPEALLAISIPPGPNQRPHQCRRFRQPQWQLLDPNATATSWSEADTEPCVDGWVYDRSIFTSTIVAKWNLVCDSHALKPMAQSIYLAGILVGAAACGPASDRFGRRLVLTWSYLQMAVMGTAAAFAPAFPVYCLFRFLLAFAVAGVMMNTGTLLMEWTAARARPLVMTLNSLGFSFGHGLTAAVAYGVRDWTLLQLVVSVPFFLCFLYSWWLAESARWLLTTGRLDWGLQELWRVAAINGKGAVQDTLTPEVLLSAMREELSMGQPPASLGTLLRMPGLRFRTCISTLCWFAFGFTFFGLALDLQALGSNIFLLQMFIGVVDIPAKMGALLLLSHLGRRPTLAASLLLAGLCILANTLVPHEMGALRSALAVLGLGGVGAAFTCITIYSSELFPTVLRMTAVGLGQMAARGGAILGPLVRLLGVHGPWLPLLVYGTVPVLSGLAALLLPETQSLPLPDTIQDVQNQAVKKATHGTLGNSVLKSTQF
Sequence of xanthine oxidase (P47989 whole entry, species assumed): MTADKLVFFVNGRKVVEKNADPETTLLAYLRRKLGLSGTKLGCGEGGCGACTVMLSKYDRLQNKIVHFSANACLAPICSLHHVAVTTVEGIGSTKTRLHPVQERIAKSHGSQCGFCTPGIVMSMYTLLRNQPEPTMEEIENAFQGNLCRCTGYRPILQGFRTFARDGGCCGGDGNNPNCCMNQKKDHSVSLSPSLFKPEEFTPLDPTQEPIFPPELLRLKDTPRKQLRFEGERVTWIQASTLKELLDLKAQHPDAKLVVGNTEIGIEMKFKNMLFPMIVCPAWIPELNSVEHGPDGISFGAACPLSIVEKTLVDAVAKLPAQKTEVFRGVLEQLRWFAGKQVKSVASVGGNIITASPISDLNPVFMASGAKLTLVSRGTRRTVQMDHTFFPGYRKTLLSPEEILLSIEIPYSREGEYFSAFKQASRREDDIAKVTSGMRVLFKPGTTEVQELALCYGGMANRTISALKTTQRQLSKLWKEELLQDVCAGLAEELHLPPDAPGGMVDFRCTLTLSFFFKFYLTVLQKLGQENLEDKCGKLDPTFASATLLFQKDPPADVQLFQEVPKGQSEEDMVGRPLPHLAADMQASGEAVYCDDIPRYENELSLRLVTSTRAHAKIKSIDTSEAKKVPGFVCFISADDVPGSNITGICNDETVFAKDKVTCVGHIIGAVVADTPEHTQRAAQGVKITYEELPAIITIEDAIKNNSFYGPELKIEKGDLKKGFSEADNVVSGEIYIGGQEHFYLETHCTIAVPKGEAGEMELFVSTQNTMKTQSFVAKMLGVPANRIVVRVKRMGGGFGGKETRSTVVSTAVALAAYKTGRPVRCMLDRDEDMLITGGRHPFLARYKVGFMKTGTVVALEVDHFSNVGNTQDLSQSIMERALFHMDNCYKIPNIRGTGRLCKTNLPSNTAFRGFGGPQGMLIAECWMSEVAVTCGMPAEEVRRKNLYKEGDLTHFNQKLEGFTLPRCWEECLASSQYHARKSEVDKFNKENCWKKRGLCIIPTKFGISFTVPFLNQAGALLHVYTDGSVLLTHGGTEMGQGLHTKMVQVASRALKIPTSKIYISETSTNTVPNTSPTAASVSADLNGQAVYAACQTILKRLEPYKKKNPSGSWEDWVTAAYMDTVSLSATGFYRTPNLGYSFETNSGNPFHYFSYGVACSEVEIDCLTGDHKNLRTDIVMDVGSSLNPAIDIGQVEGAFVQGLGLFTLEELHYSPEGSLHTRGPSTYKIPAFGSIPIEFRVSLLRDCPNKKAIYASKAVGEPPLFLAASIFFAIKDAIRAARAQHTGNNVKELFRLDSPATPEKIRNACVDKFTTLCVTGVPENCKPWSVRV

Row | Structure (SMILES) | IC50 (xanthine oxidase) | F ([1]; SD, rat, in vivo) | AUClast ([1]; SD, rat, in vivo, iv, 1 mg/kg) | Vd ([1]; SD, rat, in vivo, iv, 1 mg/kg) | AUClast ([1]; SD, rat, in vivo, po, 5 mg/kg) | T1/2 ([1]; SD, rat, in vivo, po, 5 mg/kg) | AUC(0-inf) [1, 2] | MRT inf [1, 2] | Tmax [1, 2] | half-life [1, 2] | Cmax [1, 3] | AUC(0-inf) [1, 4] | MRT inf [1, 4] | Tmax [1, 4] | IC50 (hURAT1) | other results
1 | N#Cc1cc(-c2ccc(C(=O)O)c(O)c2)c2occc2c1 [Example 1, 4-(5-cyanobenzofuran-7-yl)-2-hydroxybenzoic Acid] | 0.0196 µM | 131% | 6860 ng·h/mL | 0.399 L/kg | 44400 ng·h/mL | 3.45 h | 7000 ng·h/mL | 2.84 h | 0.083 h | 1.53 h | 6030 ng/mL | 45800 ng·h/mL | 5.98 h | 0.417 h | 0.14 µM | clearance ([1]; SD, rat, in vivo, iv, 1 mg/kg): 2.4 mL/min/kg
2 | N#Cc1cc(-c2ccc(C(=O)O)c(O)c2)c2ccccc2c1 [Example 2, 4-(3-cyanonaphthalene-1-yl)-2-hydroxybenzoic Acid] | – | – | – | – | – | – | 2210 ng·h/mL | 1.86 h | 0.083 h | 3.1 h | 4380 ng/mL | 8140 ng·h/mL | 1.5 h | 0.417 h | – | F ([1]; SD rats, po 5 mg/kg vs iv 1 mg/kg): 74.9%; AUC(0-t) [1, 2]: 2170 ng·h/mL; clearance ([1]; rat, plasma, SD rats, iv, 1 mg/kg, read-out: Cl): 7.59 mL/min/kg; Vd ([1]; rat, plasma, SD rats, iv, 1 mg/kg, read-out: Vss): 0.828 L/kg; AUC(0-t) [1, 4]: 8130 ng·h/mL; half-life [1, 4]: 3.86 h; Cmax ([1]; rat, plasma, SD rats, po, 5 mg/kg, read-out: Cmax): 6290 ng/mL
3 | N#Cc1cc2c(c(-c3ccc(C(=O)O)c(O)c3)c1)OCC2 [Example 4, 4-(5-cyano-2,3-dihydrobenzofuran-7-yl)-2-hydroxybenzoic Acid] | 0.0604 µM | – | – | – | – | – | – | – | – | – | – | – | – | – | 0.499 µM | –
4 | N#Cc1cc(-c2ccc(C(=O)O)c(O)c2)c2[nH]ccc2c1 [Example 7, 4-(5-cyano-1H-indol-7-yl)-2-hydroxybenzoic Acid] | 0.0109 µM | – | – | – | – | – | – | – | – | – | – | – | – | – | 2.88 µM | –
5 | N#Cc1cc(-c2ccc(C(=O)O)c(O)c2)c2ccoc2c1 [Example 21, 4-(6-cyanobenzofuran-4-yl)-2-hydroxybenzoic Acid] | 0.0395 µM | – | – | – | – | – | – | – | – | – | – | – | – | – | 0.172 µM | –
6 | N#Cc1cc(-c2ccc(C(=O)O)c(O)c2)c2oc(F)cc2c1 [Example 29, 4-(5-cyano-2-fluorobenzofuran-7-yl)-2-hydroxybenzoic Acid] | 0.0346 µM | 145% | 10900 ng·h/mL | 0.311 L/kg | 81700 ng·h/mL | 2.84 h | 11300 ng·h/mL | 3.49 h | 0.083 h | 2.76 h | 4540 ng/mL | 82100 ng·h/mL | 3.8 h | 1.33 h | 0.038 µM | Cl ([1]; SD, rat, in vivo, iv, 1 mg/kg): 1.51 mL/min/kg
7 | N#Cc1cc(-c2ccc(C(=O)O)c(O)c2)c2ccsc2c1 [Example 31, 4-(6-cyanobenzo[b]thiophen-4-yl)-2-hydroxybenzoic Acid] | 0.0578 µM | – | – | – | – | – | – | – | – | – | – | – | – | – | 0.045 µM | –
8 | N#Cc1cc(-c2ccc(C(=O)O)c(O)c2)c2oc(Cl)cc2c1 [Example 40, 4-(2-chloro-5-cyanobenzofuran-7-yl)-2-hydroxybenzoic Acid] | 0.0536 µM | 94% | 5480 ng·h/mL | 0.401 L/kg | 28100 ng·h/mL | 3.05 h | 6020 ng·h/mL | 2.42 h | 0.083 h | 2.33 h | 4090 ng/mL | 28200 ng·h/mL | 4.95 h | 0.5 h | 0.03 µM | Cl ([1]; SD, rat, in vivo, iv, 1 mg/kg): 2.77 mL/min/kg; Cmax ([1]; SD, rat, in vivo, po, 5 mg/kg): 3700 ng/mL
